According to patent US7494987B2, “Agent for treating respiratory diseases containing 4-hydroxypiperidine derivative as active ingredient” (priority 2002, dated 2009):

Tests used:
[1] = tested on: Citric Acid-Induced Cough Reflex in Guinea Pigs; assay: Inhibitory effect on citric acid-induced cough reflex in guinea pigs (Experimental Example 1-1, plethysmograph); format: in vivo; conditions: oral, cough measured 1 hr after treatment
Description: Guinea pigs were fasted overnight. They were fixed to a plethysmograph, and then the change of inner pressure in the plethysmograph (body side) was recorded on an ink-recording paper (Nihon Kohden Corporation; WI-642G) via the differential pressure transducer (Nihon Kohden Corporation; TP-602T) and the respiration amplifier (Nihon Kohden Corporation; AR-601G). Using a nebulizer (OMRON Corporation; NE-U12), 20 W/V % citric acid solution was sprayed into the plethysmograph (head side) for 2 min (about 1 mL/min). The number of cough response for 15 min after the spray was measured.
(§1) The cough response was measured 3 hrs before and 1 hr after oral treatment. The test compound was not administered to the guinea pigs showing 5 coughs response or less before the treatment. The ratio of cough response between before and after the treatment (Post/Pre×100) was calculated, and the percent inhibition of the test compound on cough reflex induced by citric acid was determined according to the following formula: [(CRRcontrol−CRRtest)/(CRRcontrol)]×100 (%) • CRRcontrol: Ratio (%) of cough response in the control group • CRRtest: Ratio (%) of cough response in the compound-treated group

[2] = Pharmacokinetics, time-course of plasma concentration after single oral treatment; format: in vivo, rhesus monkeys; conditions: for bioavailability: 3- or 4-year-old male rhesus monkeys; for area under the plasma concentration-time curve (AUC), dependence on dose / maximum plasma concentration (Cmax), dependence on dose / relationship between the dose and the plasma concentration: rhesus monkeys
Source text: The compound of Example 36 or Example 26 was studied about time-course of plasma concentration after single oral treatment to 3- or 4-year-old male rhesus monkeys. […] The relationship between the dose and the plasma concentration was linear. […] Therefore, it can be considered that these compounds are unlikely to be metabolized by first pass effect.

[3] = tested on: male rhesus monkeys; assay: Holter ECG test in rhesus monkeys; format: in vivo; conditions: oral, 4-year-old male rhesus monkeys
Description: In Holter ECG test, the compound of Example 36 or Example 26 was orally given to 4-year-old male rhesus monkeys at 40 mg/kg and 80 mg/kg, respectively.

[4] = tested on: liver microsomes and hepatocytes of monkeys; assay: Metabolic stability in liver microsomes and hepatocytes, monkeys; format: in vitro ADME
[5] = tested on: human drug-metabolizing enzymes; assay: Inhibitory effect on human drug-metabolizing enzymes; format: in vitro ADME
[6] = tested on: male rhesus monkeys; assay: Toxicological study, 14-day repeated oral dose in rhesus monkeys; format: in vivo
Description: The compound of Example 36 or Example 26 was orally given to 3-year-old male rhesus monkeys at 20 mg/kg/day or 40 mg/kg/day, respectively, once daily for 14 days.

[7] = tested on: Wistar Hannover female rats; assay: Toxicological study, 14-day repeated oral dose in rats; format: in vivo; conditions: 400 mg/kg/day once daily for 14 days
Description: The compound of Example 26 was orally given to 6-week-old Wistar Hannover female rats at 400 mg/kg/day once daily for 14 days.

[8] = tested on: liver microsomes and hepatocytes of humans; assay: Metabolic stability in liver microsomes and hepatocytes, humans; format: in vitro ADME
[9] = tested on: liver microsomes and hepatocytes of dogs; assay: Metabolic stability in liver microsomes and hepatocytes, dogs; format: in vitro ADME
[10] = tested on: liver microsomes and hepatocytes of rats; assay: Metabolic stability in liver microsomes and hepatocytes, rats; format: in vitro ADME
[11] = tested on: Citric Acid-Induced Cough Reflex in Guinea Pigs; assay: Inhibitory action on citric acid-induced cough reflex in guinea pigs (Experimental Example 1-2, nasal inhalation-exposure apparatus); format: in vivo; conditions: oral, 30 mg/kg, cough measured 1 hr after treatment
Description: Guinea pigs were fasted overnight. They were fixed to an nasal inhalation-exposure apparatus for small animals (M.I.P.S. Co., Ltd.), and then 20 W/V % citric acid solution was sprayed into the plethysmograph for 2 min (about 1 mL/min) using a nebulizer (M.I.P.S. Co., Ltd.). The number of cough response for 15 min after the spray was measured.
as §1, with “5 cough responses” for “5 coughs response”, “compound-treated group.” for “compound-treated group”

[12] = tested on: Wistar Hannover female rats; assay: Toxicological study, oral dose in rats; format: in vivo; conditions: 40 mg/kg, 6-week-old rats
Description: The compound of Example 36 was orally given to 6-week-old Wistar Hannover female rats at 40 mg/kg.

[13] = 40 mg/kg/day once daily for 14 days
[14] = 20 mg/kg/day once daily for 14 days

For `COc1ccc2c3c1O[C@H]1[C@@H](O)C=C[C@H]4[C@@H](C2)N(C)CC[C@@]341` [Codeine phosphate], the “Percent inhibition on cough reflex” value ([1]; 10 mg/kg) was 40%, the “Percent inhibition on cough reflex” value ([1]; 30 mg/kg) was 44% and the “Percent inhibition on cough reflex” value ([1]; 60 mg/kg) was 66%.

In the case of `CN(CC1(O)CCN(CCc2ccc(C#N)cc2)CC1)c1ccc(C(=O)O)cc1.Cl` [Example 26, 4-({1-[2-(4-cyanophenyl)ethyl]-4-hydroxypiperidin-4-ylmethyl}methylamino)benzoic acid monohydrochloride], the bioavailability [2] is reported as “high”, the “area under the plasma concentration-time curve (AUC), dependence on dose” value [2] is reported as “increased almost in proportion to the doses” and the “maximum plasma concentration (Cmax), dependence on dose” value [2] is reported as “increased almost in proportion to the doses”. The “relationship between the dose and the plasma concentration” value [2] was “linear”, the effect on electrocardiogram ([3]; 80 mg/kg) was “no effect” and the “metabolic stability in liver microsomes and hepatocytes” value (“metabolic stability” for short) [4] was “metabolically stable”. The “inhibitory effect on human drug-metabolizing enzymes” value [5] was “almost no inhibitory effect”, the “abnormality in weight gains and general behaviors” value [6, 13] was “no abnormality” and the “findings in hematological and biochemical examinations, organ weights and histopathological tests” value [6, 13] was “No apparent toxicological findings”. For the same compound, the “survival until 24 hours after the final treatment” value (shortened to “survival until 24 hours”) [6, 13] was “survived”, the “abnormality in general behaviors, weight gains, and food consumptions” value [7] was “no abnormality” and the “findings in hematological and biochemical examinations, organ weights and histopathological tests” value [7] was “No abnormal findings”. The “survival until 24 hours” value [7] was “survived”, the “Percent inhibition on cough reflex” value ([1]; 30 mg/kg) was 59% and the “metabolic stability” value [8] was “metabolically stable”. For the same compound, the “metabolic stability” value [9] was “metabolically stable” and the “metabolic stability” value [10] was “metabolically stable”.

With `CN(CC1(O)CCN(CCc2ccc(C#N)cc2)C1)c1ccc(C(=O)O)cc1.Cl` (stereo not shown) [Example 29, 4-({1-[2-(4-Cyanophenyl)ethyl]-3-hydroxypyrrolidin-3-ylmethyl}methylamino)benzoic acid monohydrochloride] the melting point was 122.8 to 132.5 °C and the “Percent inhibition on cough reflex” value [11] was 39%.

With `CN(CC1(O)CN(CCc2ccc(C#N)cc2)C1)c1ccc(C(=O)O)cc1.Cl` [Example 34, 4-({1-[2-(4-Cyanophenyl)ethyl]-3-hydroxyazetidin-3-ylmethyl}methylamino)benzoic acid monohydrochloride] the melting point was 209.1 to 210.5 °C and the “Percent inhibition on cough reflex” value [11] was 39%.

With `CN(CC1(O)CCN(CCc2ccc(C(F)(F)F)cc2)CC1)c1ccc(C(=O)O)cc1.Cl` [Example 35, 4-({4-hydroxy-1-[2-(4-trifluoromethylphenyl)ethyl]piperidin-4-ylmethyl}methylamino)benzoic acid monohydrochloride] the melting point was 235.1 to 246.9 °C and the “Percent inhibition on cough reflex” value [11] was 43%.

For `Cl.N#Cc1ccc(CCN2CCC(O)(COc3ccc(C(=O)O)cc3)CC2)cc1` [Example 36, 4-{1-[2-(4-cyanophenyl)ethyl]-4-hydroxypiperidin-4-ylmethoxy}benzoic acid monohydrochloride], the bioavailability [2] was “high”, the “area under the plasma concentration-time curve (AUC), dependence on dose” value [2] was “increased almost in proportion to the doses” and the “maximum plasma concentration (Cmax), dependence on dose” value [2] was “increased almost in proportion to the doses”. For the same compound, the “relationship between the dose and the plasma concentration” value [2] was “linear”, the effect on electrocardiogram ([3]; 40 mg/kg) was “no effect” and the “metabolic stability” value [4] was “metabolically stable”. The “inhibitory effect on human drug-metabolizing enzymes” value [5] was “almost no inhibitory effect”, the “abnormality in weight gains and general behaviors” value [6, 14] was “no abnormality” and the “findings in hematological and biochemical examinations, organ weights and histopathological tests” value [6, 14] was “No apparent toxicological findings”. The “survival until 24 hours” value [6, 14] was “survived”, the “metabolic stability” value [8] was “metabolically stable” and the “metabolic stability” value [9] was “metabolically stable”. For the same compound, the “metabolic stability” value [10] was “metabolically stable”, the “abnormality in general behaviors” value [12] was “no abnormality” and the “survival during the examination period” value [12] was “survived”.

Compound `COC(=O)c1ccc(S(=O)(=O)CC2(O)CCN(CCc3ccc(C#N)cc3)CC2)cc1` [Example 46, methyl 4-{1-[2-(4-cyanophenyl)ethyl]-4-hydroxypiperidin-4-ylmethylsulfonyl}benzoate] has a melting point of 135.4 to 137.2 °C.

With `Cn1c(=O)c2[nH]cnc2n(C)c1=O` [Theophylline] the “Percent inhibition on cough reflex” value ([1]; 20 mg/kg) was 37%.
